Measurements: US6355634B1, “Aromatic compounds” (Bayer Aktiengesellschaft, priority 1990, dated 2002)

What was measured:
Plasmopara viticola = Plasmopara viticola (protective action) on grapevine seedlings; assay type: in vivo; conditions: 144 h, 160 ppm spray, grapevine cv. Riesling x Sylvaner, day 6 after infection, read-out: action (leaf area infected with Plasmopara viticola as a percentage compared with the infected, untreated control)
Description: Plasmopara viticola (Protective Action)
2 grapevine seedlings cv. Riesling×Sylvaner, each in the 4-5 leaf stage, are sprayed thoroughly from all sides with a spray mixture prepared with a wettable powder of the active substance (with 160 ppm of active ingredient) and subsequently cultured further in a controlled-environment cabinet at 17° C., 70-80% relative atmospheric humidity and with a photoperiod of 16 hours. After 6 days, the test plants are infected by spraying the undersides of the leaves with zoosporangia of Plasmopara viticola, suspended in distilled water (approx. 300,000 sporangia/ml). The grapevine plants are then incubated as follows: 1 day at 22° C. and under dew-point conditions in the dark and subsequently 4 days in the greenhouse. To induce fructification of Plasmopara viticola, the grapevines are transferred to a controlled-environment cabinet with dew-point conditions at 22° C. on day 5 after the infection.
The tests are carried out in each case on day 6 after the infection by determining the leaf area infected with Plasmopara viticola as a percentage compared with the infected, untreated control.

Venturia inaequalis = Venturia inaequalis (curative action) on apple seedlings; assay type: in vivo; conditions: 50 ppm spray, apple cv. Golden Delicious, evaluated 9-10 days after treatment, read-out: action (leaf area covered in Venturia inaequalis as a percentage compared with the infected control)
Description: Venturia inaequalis (Curative Action)
Two apple seedlings cv. “Golden Delicious” are sprayed with a conidia suspension of Venturia inaequalis and subsequently incubated at 18° C. and under dew-point conditions. After 24 hours, the plants are sprayed thoroughly from all sides with a spray mixture prepared with a wettable powder of the active substance (with 50 ppm of active ingredient). The treated apple seedlings are subsequently cultured further in the greenhouse. 9-10 days after the treatment, the test is evaluated by determining the leaf area covered in Venturia inaequalis as a percentage compared with the infected control.

Alternaria brassicae = Alternaria brassicae (protective action) on cabbage seedlings; assay type: in vivo; conditions: 50 ppm spray, cabbage cv. Vorbote, evaluated 2-5 days after infection, read-out: action (leaf area infected with Alternaria brassicae as a percentage compared with the infected, untreated control)
Description: Alternaria brassicae (Protective Action)
4 cabbage seedlings, cv. “Vorbote”, in the 6-leaf stage, distributed to 2 pots, are sprayed thoroughly with a spray mixture prepared with a wettable powder of the active substance (with 50 ppm of active ingredient) and subsequently cultured further in a controlled-environment cabinet at 19° C. and with 16 hours illumination per day. Two days after the treatment, the plants are infected by spraying with an aqueous conidia suspension (approx. 30,000 conidia/ml). The cabbage plants are then incubated at 24-26° C., under dew-point conditions and with a photoperiod of 16 hours. The test is evaluated 2-5 days after the infection by determining the leaf area infected with Alternaria brassicae as a percentage compared with the infected, untreated control.

Cercospora arachidicola = experiment: Action against Cercospora arachidicola on peanut plants (curative action); assay type: in vivo; conditions: Mycosphaerella arachidis, 288 h, 160 ppm spray, peanut cv. Tamnut, evaluated 12 days after treatment, read-out: action (leaf area infected with Cercospora arachidicola as a percentage compared with the infected control)
Description: Action Against Cercospora arachidicola on Peanut Plants (Curative Action)
Two peanut plants cv. “Tamnut” in the 4-leaf stage are sprayed with a conidia suspension of Cercospora arachidicola (approx. 200,000 conidia/ml) and subsequently incubated at 25-26° C. and under dew-point conditions. After two days, the plants are sprayed thoroughly from all sides with a spray mixture prepared with a wettable powder of the active substance (with 160 ppm of active ingredient). The treated plants are subsequently incubated in a controlled-environment cabinet under the following conditions: 25-27° C. and 80% atmospheric humidity during the day, 20° C. and dew-point conditions during the night; the photoperiod in each case is 16 hours. 12 days after the treatment, the test is evaluated by determining the leaf area infected with Cercospora arachidicola as a percentage compared with the infected control.

Puccinia coronata = Puccinia coronata (curative action) on oat seedlings; assay type: in vivo; conditions: 160 ppm spray, oat cv. Selma, evaluated 9-10 days after infection, read-out: action (leaf area infected with Puccinia coronata as a percentage compared with the infected, untreated control)
Description: Puccinia coronata (Curative Action)
30-40 oat seedlings cv. “Selma” (distributed to 2 pots of ø7 cm) are infected with Puccinia coronata by spraying with an aqueous spore suspension (approx. 150,000 uredospores/ml). The test plants are subsequently incubated for 24 hours at 20-24° C. and under dew-point conditions. The oat seedlings are then sprayed thoroughly from all sides with a spray mixture prepared with a wettable powder of the active substance (with 160 ppm of active ingredient). They are cultured further in a controlled-environment cabinet at 19° C. and with a photoperiod of 14 hours. The test is evaluated 9-10 days after infection by determining the leaf area infected with Puccinia coronata as a percentage compared with the infected, untreated control.

Erysiphe graminis = Erysiphe graminis (protective action) on wheat seedlings; assay type: in vivo; conditions: Blumeria graminis, 168 h, 160 ppm spray, wheat cv. Lita, evaluated 7 days after infection, read-out: action (leaf area covered in Erysiphe graminis as a percentage compared with the infected control)
Description: Erysiphe graminis (Protective Action)
30-40 wheat seedlings cv. “Lita” in the 1-leaf stage (distributed to two pots of ø7 cm) are sprayed thoroughly with a spray mixture prepared with a wettable powder of the active substance (with 160 ppm of active ingredient) and then cultured further in the greenhouse. One day after the treatment, the plants are dusted with conidia of Erysiphe graminis. The test is evaluated 7 days after the infection by determining the size of the leaf area covered in Erysiphe graminis as a percentage compared with the infected control.
Untreated, but infected control plants show a level of infection with Erysiphe of 100%.

| SMILES | melting point [°C] | pest or weed control at 160 ppm (Plasmopara viticola) [%] | pest or weed control at 50 ppm (Venturia inaequalis) [%] | pest or weed control at 50 ppm (Alternaria brassicae) [%] | pest or weed control at 160 ppm (Cercospora arachidicola) [%] | pest or weed control at 160 ppm (Puccinia coronata) [%] | pest or weed control at 160 ppm (Erysiphe graminis) [%] |
| --- | --- | --- | --- | --- | --- | --- | --- |
| CO/N=C(\C(=O)OC)c1ccccc1CON=C(C)c1ccco1 | 95 to 97 |  |  |  |  |  |  |
| CO/N=C(\C(=O)OC)c1ccccc1CON=C(C)c1cccc(C(F)(F)F)c1 [Compound 12] |  | > 75 | > 75 | > 75 | > 75 | > 75 |  |
| CO/N=C(\C(=O)OC)c1ccccc1CON=C(C)c1ccccn1 [Compound 15] | 82 to 84 |  | > 75 |  |  |  | > 75 |
| CO/N=C(\C(=O)OC)c1ccccc1CON=C(C)c1ccc(Cl)cc1 [Compound 17] |  | > 75 | > 75 | > 75 | > 75 | > 75 |  |
| CO/N=C(\C(=O)OC)c1ccccc1CON=C(C)Cc1cccc(C(F)(F)F)c1 [Compound 24] |  | > 75 | > 75 | > 75 | > 75 |  | > 75 |
| CO/N=C(\C(=O)OC)c1ccccc1CON=C(c1ccccc1)C(C)C [Compound 29] |  | > 75 | > 75 | > 75 |  |  | > 75 |
| CO/N=C(\C(=O)OC)c1ccccc1CON=C(c1cccc(Br)c1)C(F)(F)F [Compound 30] |  | > 75 | > 75 | > 75 | > 75 |  |  |
| CO/N=C(\C(=O)OC)c1ccccc1CON=C(c1ccc(C)cc1)C(F)(F)F [Compound 31] |  | > 75 | > 75 | > 75 |  |  | > 75 |
| CO/N=C(\C(=O)OC)c1ccccc1CON=C(C)c1cc2ccccc2o1 [Compound 32] | 110 to 112 | > 75 | > 75 | > 75 | > 75 |  |  |
| CO/N=C(\C(=O)OC)c1ccccc1CON=C(C)c1cc(C(F)(F)F)cc(C(F)(F)F)c1 [Compound 33] | 76 to 78 |  | > 75 | > 75 | > 75 |  | > 75 |
| CO/N=C(\C(=O)OC)c1ccccc1CON=C(C)c1ccc(F)cc1 [Compound 34] | 89 to 90 |  | > 75 | > 75 | > 75 |  | > 75 |
| CO/N=C(\C(=O)OC)c1ccccc1CON=C(c1ccccc1)C1CC1 [Compound 36] |  | > 75 | > 75 | > 75 | > 75 |  |  |
| CO/N=C(\C(=O)OC)c1ccccc1CON=C(C)c1ccc2c(c1)OCO2 [Compound 38] |  | > 75 | > 75 | > 75 | > 75 |  |  |
| CO/N=C(\C(=O)OC)c1ccccc1CON=C(C)c1ccc(OC(F)F)cc1 [Compound 78] |  |  | > 75 |  |  | > 75 |  |
| CO/N=C(\C(=O)OC)c1ccccc1CON=C(C)c1ccc(F)c(C(F)(F)F)c1 [Compound 90] |  |  |  |  | > 75 | > 75 |  |
| CCC(=NOCc1ccccc1/C(=N/OC)C(=O)OC)c1ccc2ccccc2c1 [Compound 120] |  | > 75 |  |  |  |  | > 75 |
| CO/N=C(\C(=O)OC)c1ccccc1CON=C(C)C(=O)c1ccc(F)cc1 [Compound 128] |  |  |  |  |  | > 75 | > 75 |
| CO/N=C(\C(=O)OC)c1ccccc1CON=C(C)C(=O)c1cccc(C(F)(F)F)c1 [Compound 131] |  |  | > 75 |  |  | > 75 |  |
| CO/N=C(\C(=O)OC)c1ccccc1CON=C(C)Cc1ccc(Cl)c(C(F)(F)F)c1 [Compound 133] |  |  |  |  | > 75 | > 75 |  |
| CO/N=C(\C(=O)OC)c1ccccc1CON=C(C)c1cccc(Cl)c1 [Compound 135] |  | > 75 | > 75 |  |  |  | > 75 |
| CO/N=C(\C(=O)OC)c1ccccc1CON=C(C)c1cccc(OC(F)(F)F)c1 [Compound 138] |  | > 75 |  | > 75 | > 75 | > 75 |  |
| CO/N=C(\C(=O)OC)c1ccccc1CON=C(c1cccc(C(F)(F)F)c1)C1CC1 [Compound 148] |  |  |  |  | > 75 | > 75 |  |
